In ChEMBL document CHEMBL1201862, “PubChem BioAssay data set” (2004):
Calls of active or inactive are those of the source.

Key:
[1] = target: Neuropeptide Y receptor type 1 (Homo sapiens, UniProt P25929); assay type: functional;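 further: HEK293 cells with a CNG channel challenged with NPY then isoproterenol; potency as antagonist that reverses NPY suppression of cAMP signal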
[2] = target: Neuropeptide Y receptor type 2 (Homo sapiens, UniProt P49146); assay type: functional, cell-based;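 further: HEK293 cells expressing the receptor and a CNG channel; stimulus was NPY near EC95 followed by isoproterenol to raise cAMP; antagonist potency measured as restoring cAMP signal that NPY suppresses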
Chain of Neuropeptide Y receptor type 2 (P49146 whole entry): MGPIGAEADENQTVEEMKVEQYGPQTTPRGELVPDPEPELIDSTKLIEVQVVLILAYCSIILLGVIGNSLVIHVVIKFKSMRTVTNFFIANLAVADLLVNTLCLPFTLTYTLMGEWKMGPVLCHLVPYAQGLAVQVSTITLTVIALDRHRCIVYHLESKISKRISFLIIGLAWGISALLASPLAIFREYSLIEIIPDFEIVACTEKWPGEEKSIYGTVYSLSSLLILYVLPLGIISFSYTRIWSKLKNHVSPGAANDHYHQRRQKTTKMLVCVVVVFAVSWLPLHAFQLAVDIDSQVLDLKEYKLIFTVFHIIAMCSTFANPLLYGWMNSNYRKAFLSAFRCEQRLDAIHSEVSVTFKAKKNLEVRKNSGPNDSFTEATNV

[3] = target: T1, Alkaline phosphatase, tissue-nonspecific isozyme (Homo sapiens, UniProt P05186); assay: TNAP enzyme inhibition by screening hits, dose response, selectivity assay for mouse IAP inhibitor project, biochemical, human TNAP, uHTS hits (AID 488906); assay type: functional
T1 sequence (P05186 whole entry): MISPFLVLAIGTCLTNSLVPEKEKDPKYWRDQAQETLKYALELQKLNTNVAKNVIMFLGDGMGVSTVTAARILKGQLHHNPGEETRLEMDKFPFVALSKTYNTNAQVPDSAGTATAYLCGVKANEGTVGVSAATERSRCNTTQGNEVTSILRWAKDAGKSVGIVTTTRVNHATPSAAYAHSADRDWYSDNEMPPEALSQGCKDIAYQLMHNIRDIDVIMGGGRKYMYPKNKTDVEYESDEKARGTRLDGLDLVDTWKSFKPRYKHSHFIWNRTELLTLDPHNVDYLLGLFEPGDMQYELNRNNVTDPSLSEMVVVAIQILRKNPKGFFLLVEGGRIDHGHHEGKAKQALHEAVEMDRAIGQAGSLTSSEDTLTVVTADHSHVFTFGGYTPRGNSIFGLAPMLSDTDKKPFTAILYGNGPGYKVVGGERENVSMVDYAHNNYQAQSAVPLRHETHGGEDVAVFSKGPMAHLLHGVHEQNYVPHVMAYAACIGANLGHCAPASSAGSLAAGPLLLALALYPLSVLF

[4] = target: Intestinal-type alkaline phosphatase (Mus musculus, UniProt P24822); assay: PubChem AID 488785; assay type: functional
Chain of Intestinal-type alkaline phosphatase (Mus musculus, UniProt P24822) (P24822 whole entry): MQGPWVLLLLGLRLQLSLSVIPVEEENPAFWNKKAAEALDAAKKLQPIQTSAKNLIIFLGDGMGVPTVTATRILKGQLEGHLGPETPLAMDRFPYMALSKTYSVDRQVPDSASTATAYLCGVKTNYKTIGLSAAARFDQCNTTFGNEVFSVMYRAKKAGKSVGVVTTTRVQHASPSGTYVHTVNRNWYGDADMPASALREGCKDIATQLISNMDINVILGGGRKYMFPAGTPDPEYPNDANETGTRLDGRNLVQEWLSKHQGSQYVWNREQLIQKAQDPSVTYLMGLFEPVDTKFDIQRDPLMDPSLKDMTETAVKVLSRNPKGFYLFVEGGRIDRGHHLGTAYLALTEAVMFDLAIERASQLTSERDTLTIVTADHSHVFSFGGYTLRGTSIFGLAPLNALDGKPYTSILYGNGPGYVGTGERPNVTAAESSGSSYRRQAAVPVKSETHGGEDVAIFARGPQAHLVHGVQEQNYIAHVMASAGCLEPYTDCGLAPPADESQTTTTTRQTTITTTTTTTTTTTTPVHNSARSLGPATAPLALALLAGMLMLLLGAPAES

[5] = NIH3T3 cell viability loss – ATP luminescence, mouse fibroblasts, counter-screen, dose response (AID 2010); assay type: functional, cell-based;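 further: cells exposed to compound for about 90 hours before reading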
[6] = target: Intestinal-type alkaline phosphatase (Homo sapiens, UniProt P09923); assay: activation of human intestinal alkaline phosphatase – biochemical, dose response (AID 488873); assay type: functional
Chain of Intestinal-type alkaline phosphatase (Homo sapiens, UniProt P09923) (P09923 whole entry): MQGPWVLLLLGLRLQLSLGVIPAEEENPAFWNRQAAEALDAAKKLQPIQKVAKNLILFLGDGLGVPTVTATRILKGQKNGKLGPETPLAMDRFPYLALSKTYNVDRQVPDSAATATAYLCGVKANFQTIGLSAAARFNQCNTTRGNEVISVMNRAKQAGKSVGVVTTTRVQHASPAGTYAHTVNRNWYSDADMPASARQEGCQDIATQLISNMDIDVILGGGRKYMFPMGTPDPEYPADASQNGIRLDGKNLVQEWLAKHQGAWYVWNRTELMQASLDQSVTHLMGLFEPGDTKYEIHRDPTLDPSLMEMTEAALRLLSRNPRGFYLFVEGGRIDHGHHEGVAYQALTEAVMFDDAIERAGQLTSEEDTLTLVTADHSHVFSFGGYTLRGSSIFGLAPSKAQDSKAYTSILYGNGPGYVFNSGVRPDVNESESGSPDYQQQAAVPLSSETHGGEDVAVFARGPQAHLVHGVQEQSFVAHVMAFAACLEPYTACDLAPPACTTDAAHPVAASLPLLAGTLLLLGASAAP

[7] = Trypanosoma cruzi growth suppression in host cells – NIH3T3 host cells, beta-gal luminescence, confirmation (AID 2044); assay type: functional, cell-based;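 further: intracellular parasites grown in NIH/3T3 mouse fibroblasts as host cells; luminescent beta-galactosidase reporter signal from transgenic T. cruzi replicating inside host cells; inhibitors lower the luminescence signal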
[8] = target: T1, Alkaline phosphatase, tissue-nonspecific isozyme
Beta-galactosidase = Beta-galactosidase (Escherichia coli, UniProt Q8VNN2); assay: Dose response counterscreen for EBI2 assay utilizing the enzyme, b-galactosidase.; assay type: functional
Chain of Beta-galactosidase (Q8VNN2 whole entry): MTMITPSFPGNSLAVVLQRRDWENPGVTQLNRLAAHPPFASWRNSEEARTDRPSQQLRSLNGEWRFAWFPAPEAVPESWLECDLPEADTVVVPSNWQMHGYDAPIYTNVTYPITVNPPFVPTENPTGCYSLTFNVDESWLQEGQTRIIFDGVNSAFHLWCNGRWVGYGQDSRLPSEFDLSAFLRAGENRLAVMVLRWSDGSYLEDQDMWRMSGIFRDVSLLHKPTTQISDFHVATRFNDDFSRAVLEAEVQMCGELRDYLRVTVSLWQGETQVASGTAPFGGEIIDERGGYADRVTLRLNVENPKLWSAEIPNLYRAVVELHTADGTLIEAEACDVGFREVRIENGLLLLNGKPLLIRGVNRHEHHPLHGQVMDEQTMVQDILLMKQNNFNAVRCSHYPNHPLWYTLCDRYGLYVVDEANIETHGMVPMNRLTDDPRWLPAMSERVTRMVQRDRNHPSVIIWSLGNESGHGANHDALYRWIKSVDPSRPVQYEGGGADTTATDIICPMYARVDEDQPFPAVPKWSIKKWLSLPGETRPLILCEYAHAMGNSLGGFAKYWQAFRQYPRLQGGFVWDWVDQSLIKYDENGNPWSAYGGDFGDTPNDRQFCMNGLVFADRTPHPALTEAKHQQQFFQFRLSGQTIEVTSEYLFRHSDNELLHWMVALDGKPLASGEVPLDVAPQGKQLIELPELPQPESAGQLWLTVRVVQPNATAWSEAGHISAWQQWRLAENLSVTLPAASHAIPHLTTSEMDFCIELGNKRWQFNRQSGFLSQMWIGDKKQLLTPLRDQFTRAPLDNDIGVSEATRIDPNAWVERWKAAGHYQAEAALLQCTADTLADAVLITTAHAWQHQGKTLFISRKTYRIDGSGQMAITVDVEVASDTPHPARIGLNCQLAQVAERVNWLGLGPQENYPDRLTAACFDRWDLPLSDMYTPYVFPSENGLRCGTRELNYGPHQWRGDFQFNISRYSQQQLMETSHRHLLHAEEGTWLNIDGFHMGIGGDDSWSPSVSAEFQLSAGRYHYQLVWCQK

Wee1-like protein kinase = Wee1-like protein kinase (Homo sapiens, UniProt P30291); assay: Dose Response Cell-based Assay for Inhibitors of Wee1 Degradation. [Related pubchem assays: 1410, 1321 ]; assay type: functional
Chain of Wee1-like protein kinase (P30291 whole entry): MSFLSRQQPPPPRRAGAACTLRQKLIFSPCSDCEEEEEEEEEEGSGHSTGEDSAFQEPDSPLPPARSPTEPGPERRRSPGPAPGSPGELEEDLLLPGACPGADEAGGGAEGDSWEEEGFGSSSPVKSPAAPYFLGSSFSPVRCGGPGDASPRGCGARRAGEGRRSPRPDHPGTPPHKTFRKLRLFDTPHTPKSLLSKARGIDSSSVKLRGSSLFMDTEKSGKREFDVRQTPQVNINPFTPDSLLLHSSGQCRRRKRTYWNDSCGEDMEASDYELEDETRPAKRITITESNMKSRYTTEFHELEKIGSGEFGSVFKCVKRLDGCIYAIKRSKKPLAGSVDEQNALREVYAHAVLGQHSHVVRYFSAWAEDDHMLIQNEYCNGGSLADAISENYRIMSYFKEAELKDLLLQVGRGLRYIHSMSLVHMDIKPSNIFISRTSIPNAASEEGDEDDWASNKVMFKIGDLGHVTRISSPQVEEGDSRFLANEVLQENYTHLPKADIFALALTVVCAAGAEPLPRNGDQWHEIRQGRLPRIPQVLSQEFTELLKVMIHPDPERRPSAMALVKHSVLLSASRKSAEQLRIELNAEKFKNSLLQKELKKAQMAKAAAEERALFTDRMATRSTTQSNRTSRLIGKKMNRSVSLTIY

[9] = target: G2/mitotic-specific cyclin-B1 (Homo sapiens, UniProt P14635); assay: Counterscreen assay for inhibitors of Wee1 degradation: dose response cell-based assay to identify inhibitors of cyclin B degradation. [Related pubchem assays: 1410, 1321 ]; assay type: functional
Chain of G2/mitotic-specific cyclin-B1 (P14635 whole entry): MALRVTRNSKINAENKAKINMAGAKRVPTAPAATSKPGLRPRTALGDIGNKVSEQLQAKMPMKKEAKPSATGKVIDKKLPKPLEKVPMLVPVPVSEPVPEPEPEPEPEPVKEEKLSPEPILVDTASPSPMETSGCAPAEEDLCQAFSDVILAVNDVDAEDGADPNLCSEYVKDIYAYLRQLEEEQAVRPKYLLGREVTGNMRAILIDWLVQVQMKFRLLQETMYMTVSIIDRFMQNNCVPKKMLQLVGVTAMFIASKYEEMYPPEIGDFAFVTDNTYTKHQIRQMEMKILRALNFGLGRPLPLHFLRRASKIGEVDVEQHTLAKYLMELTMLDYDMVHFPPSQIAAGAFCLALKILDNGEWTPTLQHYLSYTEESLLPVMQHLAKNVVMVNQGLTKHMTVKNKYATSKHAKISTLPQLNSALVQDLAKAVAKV

[10] = antiviral protection against BTV-induced cell death – arbovirus, BSR cells, confirmation (AID 1250); assay type: functional;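 further: protection from viral cytopathic effect measured as cell viability by ATP luminescence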
[11] = target: Melanin-concentrating hormone receptor 1 (Homo sapiens, UniProt Q99705); assay: Fluorescence-based counterscreen for antagonists of the G-protein coupled receptor 7 (GPR7): cell-based high throughput dose response assay to identify antagonists of the melanin-concentrating hormone receptor 1 (MCHR1).; assay type: functional
Chain of Melanin-concentrating hormone receptor 1 (Q99705 whole entry): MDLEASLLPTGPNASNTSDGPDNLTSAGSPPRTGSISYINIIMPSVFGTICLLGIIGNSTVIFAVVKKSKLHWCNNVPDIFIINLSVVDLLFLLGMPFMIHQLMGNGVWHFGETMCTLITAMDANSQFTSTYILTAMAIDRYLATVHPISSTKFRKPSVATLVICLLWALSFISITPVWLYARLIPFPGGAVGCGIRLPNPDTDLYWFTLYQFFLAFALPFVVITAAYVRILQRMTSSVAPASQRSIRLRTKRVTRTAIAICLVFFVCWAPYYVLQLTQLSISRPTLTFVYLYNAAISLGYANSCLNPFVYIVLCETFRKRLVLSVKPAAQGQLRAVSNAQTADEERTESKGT

[12] = HEK-293T viability loss after treatment – luminescence, T-cell screen hits, cytotoxicity control for TCR NF-kB inhibitor project, dose response (AID 489026); assay type: functional, cell-based;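 further: cells exposed to compound about 14 hours before the viability readout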
[13] = target: T2, Heat shock factor protein 1 (Mus musculus, UniProt P38532); assay: decrease of HSF1-responsive luciferase luminescence – cell-based, NIH3T3, dose retest, confirmation (AID 2382); assay type: functional;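 further: NIH3T3 fibroblasts with HSF1-driven luciferase reporter stressed by proteasome inhibitor MG132; luminescence from HSF1-driven luciferase expression after 8 hours of MG132 stress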
T2 sequence (P38532 whole entry): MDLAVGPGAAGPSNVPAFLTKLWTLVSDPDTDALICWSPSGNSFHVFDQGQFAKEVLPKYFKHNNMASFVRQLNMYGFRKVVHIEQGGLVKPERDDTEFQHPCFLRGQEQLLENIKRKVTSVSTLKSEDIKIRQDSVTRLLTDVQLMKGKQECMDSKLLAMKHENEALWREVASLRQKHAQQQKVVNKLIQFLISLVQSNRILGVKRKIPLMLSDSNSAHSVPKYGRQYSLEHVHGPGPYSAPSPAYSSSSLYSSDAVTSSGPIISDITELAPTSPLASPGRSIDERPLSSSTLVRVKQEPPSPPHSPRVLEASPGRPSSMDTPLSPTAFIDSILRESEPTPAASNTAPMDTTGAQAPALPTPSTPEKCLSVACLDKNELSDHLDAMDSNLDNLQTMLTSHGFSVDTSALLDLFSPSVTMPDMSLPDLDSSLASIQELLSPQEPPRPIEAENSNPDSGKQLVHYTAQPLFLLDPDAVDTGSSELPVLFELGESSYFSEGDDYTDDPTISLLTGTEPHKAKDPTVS

[14] = target: Neuropeptides B/W receptor type 1 (Homo sapiens, UniProt P48145); assay: Fluorescence-based dose response cell-based high throughput screening assay to identify antagonists of the G-protein coupled receptor 7 (GPR7). [Related pubchem assays: 1952 (Screening assay (GPR7 antagonists).), 1880 (Summary AID.)]; assay type: functional
Chain of Neuropeptides B/W receptor type 1 (P48145 whole entry): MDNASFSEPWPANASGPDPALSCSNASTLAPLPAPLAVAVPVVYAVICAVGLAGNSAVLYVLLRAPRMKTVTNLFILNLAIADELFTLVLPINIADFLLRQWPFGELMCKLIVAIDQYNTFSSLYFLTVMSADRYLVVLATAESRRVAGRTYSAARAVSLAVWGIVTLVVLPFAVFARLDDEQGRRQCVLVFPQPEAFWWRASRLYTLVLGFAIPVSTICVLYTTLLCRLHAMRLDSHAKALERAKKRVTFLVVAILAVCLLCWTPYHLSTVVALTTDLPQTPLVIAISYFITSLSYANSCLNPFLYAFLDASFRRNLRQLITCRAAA

[15] = viability loss of HPDE-C7K cells – cell-based, fluorescence, HTS, primary screen (AID 431); assay type: functional; details: Homo sapiens
Protein Rev = Protein Rev (Human immunodeficiency virus type 1 group M subtype B (isolate WMJ22)(HIV-1), UniProt P05866); assay: inhibitors of Rev protein–RRE RNA complex – biochemical, protein-RNA interaction, dose response (AID 842); parameters: species or system Human immunodeficiency virus 1
Chain of Protein Rev (P05866 whole entry): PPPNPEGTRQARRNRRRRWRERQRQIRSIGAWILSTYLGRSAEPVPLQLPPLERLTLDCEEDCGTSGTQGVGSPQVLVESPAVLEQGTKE

[16] = HPDE-C7 pancreatic duct cell viability loss – fluorescence, HTS (AID 430); assay type: functional, cell-based; details: Homo sapiens

Chain of Neuropeptide Y receptor type 1 (P25929 whole entry): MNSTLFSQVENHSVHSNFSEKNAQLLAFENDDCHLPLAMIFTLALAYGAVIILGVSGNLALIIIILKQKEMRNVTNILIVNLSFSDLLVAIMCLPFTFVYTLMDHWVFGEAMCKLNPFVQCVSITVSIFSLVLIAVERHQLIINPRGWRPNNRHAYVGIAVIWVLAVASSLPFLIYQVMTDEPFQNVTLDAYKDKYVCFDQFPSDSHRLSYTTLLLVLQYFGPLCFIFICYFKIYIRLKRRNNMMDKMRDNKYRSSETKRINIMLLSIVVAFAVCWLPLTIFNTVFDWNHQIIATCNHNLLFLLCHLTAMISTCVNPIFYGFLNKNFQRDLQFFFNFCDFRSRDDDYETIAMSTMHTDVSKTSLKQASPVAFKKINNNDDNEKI

Structure (SMILES): CCN(CC)CC#CCC(C)(c1ccccc1)c1ccccc1
- IC50 [1]: < 12 µM (not active)
- IC50 [2]: 6.17 µM (active)

Structure (SMILES): CC(C)c1ccc(NC(=O)NC2CCN(CC(=O)Nc3cccc4ccccc34)CC2)cc1
- IC50 [3]: 59.3 µM (active)
- IC50 [4]: 10.8 µM (active)
- EC50 [5]: > 60 µM (inconclusive)
- EC50 [6]: > 100 µM (inactive)
- EC50 [7]: 1.88 µM (active)
- EC50 [8]: > 100 µM (not active)

Structure (SMILES): COC(=O)C1CCN(C(=O)/C=C/c2ccc(OC)cc2)CC1
- IC50 (Beta-galactosidase): > 80 µM (inactive)
- EC50 (Wee1-like protein kinase): > 49.7 µM (not active)
- EC50 [9]: > 49.7 µM (not active)

Structure (SMILES): CCc1cc(C(=O)O)c(NC(=O)C(c2ccccc2)c2ccccc2)s1
- IC50 [10]: 23.2 µM (active)

Structure (SMILES): COc1ccccc1C(=O)N(CCC1CCCN1C)c1nc2ccccc2s1 (centres undefined)
- IC50 [11]: 29.7 µM (not active)
- IC50 [12]: > 80 µM (inactive)
- EC50 [13]: < 0.16 µM (active)
- IC50 [14]: 21.4 µM (not active)

Structure (SMILES): CN(C)CC(O)COc1ccc(-c2ccc(C#N)cc2)cc1 (centres undefined)
- EC50 [15]: > 20 µM (not active)
- IC50 (Protein Rev): > 79.4 µM (not active)
- EC50 [16]: > 20 µM (not active)
